Test results reported in article PMC10570359, “Dietary supplementation of cystinotic mice by lysine inhibits the megalin pathway and decreases kidney cystine content” (Scientific Reports, 2023).
Like-named read-outs stand apart in the source and are kept apart here.

Columns and labels:
megalin = experiment: Confocal imaging of megalin localization in kidney proximal tubular cells of WT mice; format: in vivo; settings: WT female mice, two weeks diet, kidney cortex
Source text: Glom, glomerulus (no detectable megalin signal).

[1] = Clinical urine and serum analyses in Ctns KO mice under 5x-dAA diets
Source text: We also attempted to further discriminate between luminal (competition for surface megalin binding) and intracellular metabolic effects (see Discussion) by comparing the effects of 5x-L-lysine to its stereoisomer, 5x-D-lysine. Unless stated otherwise, diets were initiated at 6 months-of-age, and mice were studied then euthanized at 8 months-of-age (2-months treatment). This time frame was selected for two reasons. First, in the mouse cystinosis model, this an appropriate window to evaluate the impact on PTC alterations based on changes in kidney cystine accumulation and overall function. […] Second, although primary prevention by earlier intervention (from 2-to-6 months-of-age) better mimics perinatal genetic megalin ablation, thus could be more efficient, secondary intervention (starting at 6 months-of-age), when disease becomes clinically apparent, is more relevant for further translational studies.
(§1) Body weight was recorded before entering the metabolic cages. […] Creatinine clearance was normalized by mouse body weight.

[2] = Urinary and serum amino-acid concentration by mass spectrometry in Ctns KO mice; format: in vivo; settings: for Urinary alanine / Urinary cystine / Urinary glycine: Ctns KO mice at 8 months of age, 24-h urine, mean ± SEM; for increase of cystinuria: vs control diet; for concentration at 2 months: n = 4
Method: as §1
Quantitative analysis of underivatized amino-acids in serum and urine samples was performed using the Amino Acids LC–MS/MS analysis Kit Jasem®. […] Equipment was controlled and data were analyzed using MassHunter Workstation (Agilent Technologies). The assay was validated for selectivity, specificity, linearity and limit of quantification, accuracy and precision, matrix effects and recovery, and stability.

[3] = test system: kidney proximal tubular cells; experiment: Triple fluorescence of lysosomes and endogenous albumin in PTCs of Ctns KO mice (2-to-6 months diet); format: in vivo; settings: Ctns KO female mice, diet from 2-to-6 months-of-age
Method: For in vivo endocytic tracing in PTCs, Texas Red-ovalbumin (300 µg, Invitrogen #O23021) was injected intravenously at 20 min before sacrifice. For immunofluorescence, antigen retrieval was promoted in citrate buffer, pH 6, at 95 °C for 20 min using a Lab Vision Pretreatment Module™ (Thermo Scientific). Tissue was permeabilized with PBS/0.3% Triton-X100 for 5 min, then for one further hour with 10% bovine serum albumin (BSA)/3% milk to block non-specific sites. Sections were incubated overnight at 4 °C with the following primary reagents in blocking buffer: sheep anti-megalin (1/800, kindly provided by Drs P. Verroust and R. Kozyraki, INSERM U968, Paris, F-75012, FR), rat anti-LAMP-1 (1/100; #1D4B, Hybridoma Bank), mouse anti-ezrin (1/100, #MS-661-P1, ThermoScientific), mouse anti-Ki67 (1/250, #556003, BD-Pharmingen), rabbit anti-human albumin (1/1000; Dako #A0001). After washing, sections were further incubated with the appropriate AlexaFluor-secondary antibodies for 1 h at room temperature in 10% BSA/0.3% Triton-X100 and mounted with Faramount aqueous mounting medium (Dako). Sections were imaged on a spinning disk confocal microscope using EC Plan-NeoFluar 40X/1.3 or 100x/1.4 Oil DIC objective (Cell Observer Spinning Disk; Zeiss). Proliferative events in kidney cortex were quantified as described. Alternatively, whole kidney images were acquired using a Pannoramic 250 Flash III microscope (3DHistech). Histological PAS staining and quantification of the frequency of swan-neck lesions were performed as described. Sirius Red staining of paraffine sections and morphometry in total sagittal kidney sections after conversion to red fluorescence were performed as described[53],[54]. […]
Supplemental Figure 3. […]
not detected within PT lysosomes of dAA-treated mice under identical immunolabeling /imaging conditions, indicating impaired endocytosis and/or […] degradation upon dbAA supplementation. […]

megalin pathway = settings: mouse, in vivo
Method: After 24-h adaptation in metabolic cages, urine was collected during the following 24 h in presence of 0.1% sodium azide and 1x-protease inhibitors (Thermo Scientific). When in metabolic cages, mice had free access to tap water and food. Blood was collected 2 days before starting the treatments and entry into metabolic cages (baseline) and at the sacrifice to obtain serum. Body weight was recorded before entering the metabolic cages. Urine and serum analyses were performed by the veterinary laboratory Appialab Srl (Rome, Italy). Urinary levels of CC16 were measured by the Mouse Clara Cell Protein 16 kit 96 T #EKU03200 (Biomatik) according to manufacturer’s instructions. Serum levels of cystatin-C were measured by the Mouse/Rat Cystatin C Quantitative ELISA #MSCTC0 (R&D Systems). […] Creatinine clearance was normalized by mouse body weight.

cystinotic rat model = experiment: 5x-L-lysine diet in cystinotic rat model (preliminary, not shown); format: in vivo; settings: preliminary results (not shown)
[4] = test system: kidney proximal tubular cells; settings: Ctns KO mice kidneys at 8 months of age
Method: At cellular level, we assessed PT cell death linked to compensatory renewal, by measuring Ki-67 immunolabelling abundance, a validated proliferation index (Fig. 6a)[22].
(a) Proliferative events in PTCs were identified by Ki-67 immunolabelling in confocal images and scored over random fields to cumulative areas of 0.96 mm^2.
For immunofluorescence, antigen retrieval was promoted in citrate buffer, pH 6, at 95 °C for 20 min using a Lab Vision Pretreatment Module™ (Thermo Scientific). Tissue was permeabilized with PBS/0.3% Triton-X100 for 5 min, then for one further hour with 10% bovine serum albumin (BSA)/3% milk to block non-specific sites. […] After washing, sections were further incubated with the appropriate AlexaFluor-secondary antibodies for 1 h at room temperature in 10% BSA/0.3% Triton-X100 and mounted with Faramount aqueous mounting medium (Dako). Sections were imaged on a spinning disk confocal microscope using EC Plan-NeoFluar 40X/1.3 or 100x/1.4 Oil DIC objective (Cell Observer Spinning Disk; Zeiss). Proliferative events in kidney cortex were quantified as described[22].

megalin and cubilin = test system: megalin and cubilin; parameters: method as in PMID 16508656; settings: rats, cited from earlier work
[5] = Tolerance of prolonged 5x-dAA diets in mice; settings: ad libitum 5x-supplemented solid diet, approx. 45 mmoles/kg/day
Source text: Ctns knockout mice (C57BL/6 background) were kindly provided by Dr. Corinne Antignac[18]. […] The same increase was set for L- (and D-) lysine.

[6] = Ctns KO mice, daily urine collections
[7] = female, C57BL/6, mouse, in vivo, 2 months
[8] = Ctns KO mice at 8 months of age, 2 months of treatment, serum, mean ± SEM
[9] = Ctns KO mice at 8 months of age, 2 months of treatment, urine, mean ± SEM

For N=C(N)NCCC[C@H](N)C(=O)O [5x-L-arginine, L-arginine], the “subcellular localization of megalin in PTCs” value (megalin) was “no relocation”, the Calculated creatinine clearance ([1]; mouse, in vivo) was 40.7 ± 3.5 µL/min and the Serum creatinine ([1]; mouse, in vivo) was 0.9 ± 0.1 mg/dL. For the same compound, the “Serum cystatin-C” value ([1]; mouse, in vivo) was 1092 ± 56.5 ng/mL, the Serum glucose ([1]; mouse, in vivo) was 170.9 ± 9.5 mg/dL and the Serum phosphate ([1]; mouse, in vivo) was 9.7 ± 0.3 mg/dL. It also gave a Serum urea ([1]; mouse, in vivo) of 63.6 ± 3.8 mg/dL, a Urine creatinine ([1]; mouse, in vivo) of 22.1 ± 2.7 mg/dL and a Urine glucose/creatinine ([1]; mouse, in vivo) of 25.8 ± 4.0 g/g. For the same compound, the Urine phosphate/creatinine ([1]; mouse, in vivo) was 1.9 ± 0.2 g/g, the Urine urea/creatinine ([1]; mouse, in vivo) was 238.2 ± 17.3 g/g and the Urinary alanine [2] was 712.5 ± 216.9 mM/M creatinine. The Urinary cystine [2] was 146.6 ± 43.7 mM/M creatinine, the Urinary glycine [2] was 963.7 ± 218.1 mM/M creatinine and the “urinary arginine concentration reached” value [2, 6] was ~ 1 mM. For the same compound, the increase of cystinuria ([2]; Ctns KO mice) was “twofold”, the increase of argininuria [2, 7] was 33 fold and the concentration at 2 months ([2]; female, C57BL/6, mouse, serum, oral, 7.6 g/kg/day, Ctns KO mice, read-out: serum arginine) was 137 ± 35 µM. The “lysosomal enlargement/deformation in PTCs” value [3] was “prevent lysosomal enlargement and distorsion”, the Urine microalbumin/creatinine (megalin pathway) was 0.2 ± 0.0 mg/g and the “increase of microalbuminuria vs control diet” value (megalin pathway) was “no detectable increase”.
In the case of NCCCC[C@H](N)C(=O)O [5x-L-lysine, L-lysine], the “subcellular localization of megalin in PTCs” value (megalin) is reported as “no relocation”, the Body weight ([1]; Ctns KO mice at 8 months of age, 2 months of treatment, mean ± SEM) is reported as 23.0 ± 0.9 g and the Serum creatinine [1, 8] is reported as 0.8 ± 0.1 (n = 9) mg/dL. For the same compound, the “Serum cystatin-C” value [1, 8] was 669.2 ± 33.2 ng/mL, the Serum glucose [1, 8] was 169.1 ± 9.3 (n = 9) mg/dL and the Serum phosphate [1, 8] was 10.1 ± 0.5 (n = 9) mg/dL. The Serum urea [1, 8] was 58.3 ± 2.6 (n = 9) mg/dL, the Daily creatinine output [1, 9] was 0.7 ± 0.1 mg/day and the Diuresis [1, 9] was 2.8 ± 0.2 mL/day. It also gave a Urine creatinine [1, 9] of 25.6 ± 2.5 mg/dL, a Urine glucose/creatinine [1, 9] of 19.0 ± 4.6 g/g and a Urine phosphate/creatinine [1, 9] of 2.3 ± 0.4 g/g. For the same compound, the Urine urea/creatinine [1, 9] was 173.0 ± 15.2 g/g, the Urinary alanine [2] was 639.6 ± 279.6 mM/M creatinine and the Urinary cystine [2] was 504.5 ± 61.2 mM/M creatinine. The Urinary glycine [2] was 881.0 ± 265.9 mM/M creatinine, the “urinary lysine concentration reached” value [2, 6] was ~ 25 mM and the increase of cystinuria ([2]; Ctns KO mice) was 8 fold. It also gave an increase of argininuria [2, 7] of 25 fold, an increase of lysinuria [2, 7] of 210 fold and a concentration at 2 months ([2]; female, C57BL/6, mouse, in vivo, 6.5 g/kg/day, Ctns KO mice, read-out: serum lysine) of 581 ± 15.5 µM. The “endogenous albumin signal in PTC lysosomes” value [3] was “disappearance of albumin signal”, the “lysosomal enlargement/deformation in PTCs” value [3] was “prevent lysosomal enlargement and distorsion” and the Fanconi syndrome (cystinotic rat model) was “serious worsening”. The kidney cystine accumulation (cystinotic rat model) was “considerably decreased”, the “Ki-67 proliferation index in PTCs” value [4] was “undistinguishable” and the tolerance (megalin and cubilin; 1-day gavage, 80 mmoles/kg) was “well tolerated”. The LMWPuria (megalin and cubilin; gavage for one day) was “prominent LMWPuria”, the “localization of megalin and cubilin in PTCs” value (megalin and cubilin; gavage for one day, from base of brush border to brush border itself) was “striking relocation” and the “tolerance of prolonged diet” value [5] was “well tolerated”.
